Measurements reported in patent US7556928B2, “Method of screening a population of cells” (One Cell Systems, Inc., priority 2001, dated 2009).

What was measured:
CRL-8018 hybridoma cells [1] = experiment: Microdrop isotype capture and isolation assay (FACS); format: cell-based, mouse; settings: 100 nM
Description: Determination of Spontaneous and In-vitro Stimulated Switching Rate Using the Microdrop Isotype Capture and Isolation Assay Due to the low rate of isotype switching, analysis of large cell populations is necessary. —We, therefore, used a modified microdrop encapsulation protocol to isolate spontaneous or in-vitro induced rare IgG isotype switch variants among IgM secreting hybridoma cells. If the IgG concentration in supernatants was <0.1 μg/ml, we initially encapsulated multiple cells, followed by single cell encapsulation. In all cases, if,after in-vitro induction, the concentration of secreted IgG in supernatants was >0.1 μg/ml, one round of single cell encapsulation was sufficient for discriminating and sorting a small sub-population of positive cells.
Two aliquots of 500 μl melted CelBioGel-3™ were vortexed with 25 μl of 10% Pluronic F-68 solution (Sigma-Aldrich), equilibrated at 37° C. for 3 min and then each was mixed with at least 2×10^6 hybridoma cells in […] of growth medium. These mixtures were added to 15 ml prewarmed CelMix™, covered and shaken vigorously 10 times to form an emulsion. Then the vial was attached to CellSys100™ Microdrop Maker (One Cell Systems, Inc) and the emulsion was mixed at 1800 rpm for 1 min at RT, then 1800 rpm for 1 min at 0° C., and subsequently 1000 rpm for 6 min at 0° C. Microdrops were washed three times in DPBS to remove oil and then incubated in 7 ml DPBS containing streptavidin (Sigma-Aldrich) at a final concentration of 10 μg/ml for 10 min at RT.
After incubating with streptavidin, microdrops were washed three times by resuspending in 15 ml DPBS- followed by centrifugation at 1500 rpm for 5 min and then incubated with 10 μg/ml of biotinylated goat anti-mouse IgG for 10 min. Microdrops were again washed three times in DPBS- (as above) and resuspended in 20 ml of prewarmed growth medium and incubated at 37° C. for 2 hr for antibody secretion by the encapsulated cells. After incubation, microdrops were pelleted by centrifugation at 1500 rpm for 5 min, resuspended in cold DPBS- and labelled with 10 μg/ml of FITC-conjugated goat anti-mouse IgG-specific antibody (Jackson Immunochemicals). microdrops were washed twice in HBSS, resuspended in 2 ml of growth medium and sorted using a Coulter EPICS Elite; gating was set to sort only highly positive microdrops, based on controls.
To determine spontaneous and in-vitro induced switching rate using the microdrop isotype capture and isolation assay, CRL-8018 hybridoma cells were plated out in two 75 cm^2 flasks or two 12-well plates (2 ml/well) at a density of 1×10^4 cells/ml in complete growth medium alone or in the presence of stimulators as described above. Cells were cultured at 37° C., 5% CO2 in a humid incubator for 5 days. Cell culture supemates were harvested and IgM and/or IgG production was tested using IsoStip™ or an ELISA-based mouse Isotyping kit (Zymed, Inc.). All cells from 75 cm2 flasks and from wells positive for IgG production were pooled, resuspended in 100-200 μl of growth medium and encapsulated in microdrops. The first round of isotype capture and isolation enrichment with multiple occupied microdrops was then performed, as described above. After sorted cells were propagated in culture for 5 days, the second round of the assay was performed usingmicrodrops occupied by single cells. After isolation by FACS, IgG secretors were plated out in 96-well plates, 1 cell/well. The number of recovered clones was estimated using supernatant ELISA after incubating plates at 37° C. in 5% C02 for 14 days.
Fluorescence Activated Cell Sorting Cell sorting was performed using an EPICS Elite™ Coulter Corp. with a 100 μm flow nozzle. FITC-labelled detection regents were excited by the 488 nm spectral line of an argon laser. Green (FITC) fluorescence was collected using a 525 nm, long pass band filter. For statistical analysis, EPICS Elite 4.02 software was used. […]

CRL-8018 hybridoma cells [2] = experiment: In-vitro induced IgG isotype switching by sequential sublining and mIgG ELISA; format: cell-based, mouse; settings: retinoic acid 100 nM
Description: Induction of Class-Switching Using CRL-8018 cell line, we investigated and evaluated methods of increasing the number class-switching events in-vitro. Cells were plated in 75 cm^2 flasks or in 12-well plates at 1×10^4/ml and incubated for 7 days in complete growth medium supplemented with:
Determination of In-vitro Induced Switching Rate Using Sequential Sublining CRL-8018 cells were resuspended in growth medium supplemented with mitogen(s)/growth factors as described above and plated out in ten 96-well plates at a density of 1,000 cells/well. Cells were cultured at 37° C., 5% CO2 in a humid incubator for 5 days. Cell culture supernates were collected and an isotype-specific ELISA performed. Briefly, 96-well flexible assay plates, previously coated with 10μg/plate of purified goat anti-mouse IgG (Jackson Immunochemicals) in 20 mM NaHCO3 (Sigma-Aldrich), 50 μl/well, were incubated overnight at 4° C. and then washed 3 times in Dulbecco's phosphate buffered saline without calcium and magnesium/0.2% Tween 20 (DPBS-/Tween) (Sigma-Aldrich). Non-specific protein binding sites were blocked using PBS+1% BSA, 200 μl/well for 2 hr at room temperature (RT).
100 μl of each of the culture supemates were harvested and incubated in the anti-IgG coated plates for 2 hr at RT. The assay plates were washed three times in DPBS-/Tween, and 50 μl of HRP conjugated goat anti-mouse IgG (Jackson Immunochemicals) diluted 1:100 in PBS/Tween were applied to each well and incubated at RT for 1 hr. Plates were washed again and developed using 100 μl of TMB substrate solution (Sigma-Aldrich). The reaction was halted with 0.5M H2SO4 (Sigma-Aldrich) and plates were read at […] on an ELx800 ELISA plate reader (Bio-TEK Instruments, Inc.). Five rounds of the above procedure were performed to determine the switching rate.
11. Detection of In-vitro Induced IgG Isotype Switching Rate Among CRL-8018 Hybridoma Cells Using Sequennal Sublining Experiments were performed with CRL-8018 hybridoma cell line as described in Materials and Methods. […] Sequental sublining was performed as described in Materials and Methods. 1×10^6 cells were resuspended in 200 ml of growth medium supplemented with 100 nM of retinoic acid (5×10^3/ml) and plated out in ten 96-well plates at a density of 1,000 cells/well (0.2 ml/well). After 5 days of incubation at 37° C. and 5% CO2, mIgG isotype specific ELISA was performed with cell culture supemates. Cells from two positive wells were plated out in 96-well plates at a density of 100 cells/well (25 plates). Five rounds of the above procedure were performed: 1,000 cells/well, 100 cells/well, 10 cells/well, and 1 cell/well. […] About two months, 110 plates and 10,560 supemates for mIgG isotype specific ELISA were required for the assay.

[3] = after first round with 25 × 10^6 cells
[4] = second round, highest-fluorescence sub-population

In the case of `CC1=C(/C=C/C(C)=C/C=C/C(C)=C/C(=O)O)C(C)(C)CCC1` [retinoic acid], the “First round of FACS, FITC MFI” value (CRL-8018 hybridoma cells [1]; 2 × 10^6 cells, single cell encapsulation) is reported as 320.65, the “First round of FACS, % positive events detected” value (CRL-8018 hybridoma cells [1]; 2 × 10^6 cells, single cell encapsulation, 1 cell per GMD) is reported as 0.15% and the “First round of FACS, FITC MFI” value (CRL-8018 hybridoma cells [1]; 25 × 10^6 cells, multiple cell encapsulation) is reported as 17.93. For the same compound, the “First round of FACS, % positive events detected” value (CRL-8018 hybridoma cells [1]; 25 × 10^6 cells, multiple cell encapsulation, 2.5 cells per GMD) was 0.09%, the “Sequential second round of FACS of single occupied GMDs, % positive events detected” value (CRL-8018 hybridoma cells [1]; [3]) was 36.4% and the “Sequential second round of FACS of single occupied GMDs, FITC MFI” value (CRL-8018 hybridoma cells [1]; [3]) was 11.3. For the same compound, the “Sorted GMDs % pos” value (CRL-8018 hybridoma cells [1]; [4]) was 2.9%, the “Sorted GMDs MFI” value (CRL-8018 hybridoma cells [1]; [4]) was 75.2 and the “rate of isotype switching” value (CRL-8018 hybridoma cells [2]) was roughly 0.0006%. For the same compound, the “% positive wells” value (CRL-8018 hybridoma cells [2]; 1 cell/well, of 2400 wells) was 91.2%, the “% positive wells” value (CRL-8018 hybridoma cells [2]; 10 cells/well, of 2400 wells) was 23.5% and the “% positive wells” value (CRL-8018 hybridoma cells [2]; 100 cells/well, of 2400 wells) was 12.4%. The “% positive wells” value (CRL-8018 hybridoma cells [2]; 1,000 cells/well, of 960 wells) was 0.6%, the mIgG positive wells (CRL-8018 hybridoma cells [2]; plating density 1 cell/well) was 2188 and the mIgG positive wells (CRL-8018 hybridoma cells [2]; plating density 10 cells/well) was 564. The mIgG positive wells (CRL-8018 hybridoma cells [2]; plating density 100 cells/well) was 298 and the mIgG positive wells (CRL-8018 hybridoma cells [2]; plating density 1,000 cells/well) was 6.
